Several values for one entry are separate records, joined by “and”; a condition that tells them apart may be missing. Equal entries are not always repeated.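 Exposure lasted 48 hours, with cells grown in 96-well plates and compounds tested at five concentrations. The concentration for 50% growth inhibition is given as GI50.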 Activity calls are given as the source filed them. No stated cut-off is given here; in the data, active = GI50 up to about 1.1 µM and inactive = higher.

Test systems include SK-MEL-28; OVCAR-5; LOX IMVI; TK-10; CCRF-CEM; SF-539; EKVX; A498; MCF7; HCT-15; MDA-N; SF-268; HOP-62; PC-3; HL-60; OVCAR-3; NCI-H226; MDA-MB-231; MOLT-4; NCI-H522.
Holding throughout (assay): DTP human tumour cell line panel, 48 h

As to `COc1ccc(C2SCC(=O)N2c2ccc(-c3ccc(-n4c(-c5ccccc5)nc5ccccc5c4=O)cc3)cc2)cc1` (stereo not given), the GI50 (commonly the concentration that inhibits growth by half) in the test on SK-MEL-28 is > 100 µM (inactive); in the test with OVCAR-5, 28.5 µM (inactive); in the test with LOX IMVI, > 100 µM (inactive); in the test on TK-10, 45.2 µM (inactive); with CCRF-CEM, 28.6 µM (inactive); with SF-539, 74.8 µM (inactive). The GI50 in the test with EKVX was > 100 µM (inactive); in the test on A498 it was > 100 µM (inactive); in the test on MCF7, 26.1 µM (inactive); in the test with HCT-15, 44.5 µM; with MDA-N it was 65.9 µM (inactive); with SF-268, > 100 µM (inactive). Further, the GI50 with HOP-62 is 69.8 µM (inactive); with PC-3 it was 34 µM (inactive); with HL-60 it was 54.3 µM (inactive); in the test on OVCAR-3 it was 17.5 µM (inactive); in the test on NCI-H226, 65.3 µM (inactive); in the test on MDA-MB-231 it was 54.6 µM (inactive). For the same molecule, the GI50 in the test on MOLT-4 is 31.8 µM (inactive); in the test with NCI-H522, 30.3 µM (inactive).

Consider `O=C1CSC(c2ccccc2[N+](=O)[O-])N1c1ccc(-c2ccc(-n3c(-c4ccccc4)nc4ccccc4c3=O)cc2)cc1` (stereo not given), for which the GI50 in the test on SK-MEL-28 is > 100 µM (inactive); in the test on OVCAR-5, 71.3 µM (inactive); in the test with LOX IMVI, 54 µM (inactive); in the test with TK-10, > 100 µM (inactive); in the test on CCRF-CEM, 46.2 µM (inactive); with SF-539, 58.6 µM (inactive). The GI50 is > 100 µM (inactive) with EKVX; > 100 µM (inactive) in the test with A498; 80.5 µM (inactive) in the test with MCF7; 74.3 µM in the test on HCT-15; > 100 µM (inactive) in the test on MDA-N; 45.8 µM (inactive) with SF-268. In addition, the GI50 with HOP-62, in the test with PC-3, in the test with HL-60, in the test with OVCAR-3, in the test on NCI-H226 and in the test on MDA-MB-231 was > 100 µM (inactive) in each case. Moreover, the results for the GI50 with MOLT-4 and in the test on NCI-H522 were 43.2 µM (inactive) and > 100 µM (inactive), respectively.

With `O=c1c(-c2c(-c3ccccc3)oc3ccc(Cl)cc3c2=O)c(-c2ccccc2)oc2ccc(Cl)cc12`, the GI50 in the test with SK-MEL-28 was > 100 µM (inactive); in the test with OVCAR-5, > 100 µM (inactive); in the test on LOX IMVI it was > 82.4 µM (inactive); in the test on TK-10, > 100 µM (inactive); in the test with CCRF-CEM, > 100 µM (inactive); in the test with SF-539, > 100 µM (inactive). Moreover, the GI50 was > 43.9 µM (inactive) in the test on EKVX; > 100 µM (inactive) in the test on A498; > 100 µM (inactive) in the test with MCF7; more than 100 µM in the test with HCT-15; > 100 µM (inactive) in the test on MDA-N; > 49.9 µM (inactive) in the test with SF-268. For the same molecule, the GI50 with HOP-62 was > 39.7 µM (inactive); in the test with PC-3, > 100 µM (inactive); in the test with HL-60, 0.0302 µM (active); in the test with OVCAR-3 it was > 100 µM (inactive); with NCI-H226, > 100 µM (inactive); with MDA-MB-231, > 40.3 µM (inactive). Further, the GI50 in the test with MOLT-4 and in the test on NCI-H522 was > 100 µM (inactive) throughout.

Regarding `C[C@@H]1OCC(O)C([C@H]2OC(c3ccccc3)=N[C@H]2CO)O1` (stereo not given in full), the GI50 with SK-MEL-28, with OVCAR-5, in the test on LOX IMVI, with TK-10, in the test on CCRF-CEM and with SF-539 was > 100 µM (inactive) in each case. Also, the GI50 in the test on EKVX was > 100 µM (inactive); in the test on A498, > 100 µM (inactive); in the test on MCF7, > 100 µM (inactive); in the test with HCT-15, more than 100 µM; with MDA-N it was > 100 µM (inactive); in the test on SF-268, > 100 µM (inactive). The GI50 in the test with HOP-62, in the test with PC-3, with HL-60, with OVCAR-3, with NCI-H226 and in the test with MDA-MB-231 was > 100 µM (inactive) throughout. Further, the GI50 with MOLT-4 and in the test with NCI-H522 was > 100 µM (inactive) throughout.

As for `O=C1C(N2CCN(c3ccccn3)CC2)=C(Cl)C(=O)c2ncccc21`, the GI50 was 2.89 µM (inactive) with SK-MEL-28; > 10 µM (inactive) in the test on OVCAR-5; 2.22 µM (inactive) with LOX IMVI; 3.24 µM (inactive) in the test on TK-10; 1.32 µM (inactive) in the test with CCRF-CEM; > 10 µM (inactive) with SF-539. The GI50 in the test on EKVX is > 10 µM (inactive); in the test on A498, 5.07 µM (inactive); with MCF7, 1.76 µM (inactive); with HCT-15 it was 1.95 µM; with MDA-N, 1.66 µM (inactive); in the test on SF-268, > 6.1 µM (inactive). The GI50 in the test on HOP-62 is > 10 µM (inactive); in the test on PC-3, > 9.16 µM (inactive); in the test with HL-60, 0.105 µM (active); in the test on OVCAR-3, 1.89 µM (inactive); with NCI-H226 it was > 10 µM (inactive); in the test on MDA-MB-231, 3.63 µM (inactive). Moreover, the results for the GI50 in the test on MOLT-4 and in the test on NCI-H522 were 1.83 µM (inactive) and 0.142 µM (active), respectively.

In the case of `COc1ccccc1NC(=O)CC(=O)n1nc(C)c(/N=N/c2ccccc2Cl)c1C`, the GI50 in the test with SK-MEL-28 is > 100 µM (inactive); in the test with OVCAR-5, > 100 µM (inactive); in the test with LOX IMVI it was > 100 µM (inactive); in the test on TK-10, > 100 µM (inactive); with CCRF-CEM, > 81.3 µM (inactive); in the test with SF-539, 56.1 µM (inactive). Further, the GI50 in the test with EKVX was > 90.4 µM (inactive); in the test with A498, > 100 µM (inactive); in the test on MCF7, > 100 µM (inactive); in the test on HCT-15, more than 100 µM; in the test on MDA-N it was > 31.6 µM (inactive); in the test on SF-268 it was > 76 µM (inactive). Further, the GI50 in the test on HOP-62 is 58.3 µM (inactive); in the test on PC-3, > 100 µM (inactive); in the test with HL-60, > 95.5 µM (inactive); in the test on OVCAR-3, > 100 µM (inactive); in the test with NCI-H226 it was > 100 µM (inactive); in the test with MDA-MB-231, > 100 µM (inactive). Moreover, the GI50 in the test with MOLT-4 is 80.2 µM (inactive); in the test on NCI-H522, > 100 µM (inactive).

Consider `O=C1CC(NC(=O)C(F)(F)F)c2c1csc2Br` (stereo not given), for which the GI50 is > 100 µM (inactive) in the test on SK-MEL-28; 2.24 µM (inactive) in the test on OVCAR-5; 60.3 µM (inactive) in the test on LOX IMVI; 4.91 µM (inactive) in the test on TK-10; 33.6 µM (inactive) with CCRF-CEM; 74.1 µM (inactive) with SF-539. For the same molecule, the GI50 was 14.8 µM (inactive) with EKVX; 45.3 µM (inactive) in the test on A498; 2.94 µM (inactive) in the test on MCF7; 88.5 µM in the test with HCT-15; 33.5 µM (inactive) with MDA-N; 0.678 µM (active) in the test on SF-268. Further, the GI50 in the test on HOP-62 was > 100 µM (inactive); in the test with PC-3 it was > 100 µM (inactive); in the test on HL-60, 53.1 µM (inactive); in the test with OVCAR-3, 2.45 µM (inactive); in the test with NCI-H226, > 100 µM (inactive); with MDA-MB-231 it was > 100 µM (inactive). In addition, the GI50 in the test with MOLT-4 was 31.5 µM (inactive); in the test with NCI-H522, 54.6 µM (inactive).

In the case of `CCOC(=O)CCC1(C(=O)O[C@@H]2C[C@H](C)CC[C@H]2C(C)C)CCCCC1=O` (stereo not given in full), the GI50 in the test on SK-MEL-28 is 74 µM (inactive); in the test on OVCAR-5, > 100 µM (inactive); with LOX IMVI, > 100 µM (inactive); with TK-10 it was 56.4 µM (inactive); in the test on CCRF-CEM, 46.1 µM (inactive); with SF-539, > 100 µM (inactive). In addition, the GI50 with EKVX is 41.3 µM (inactive); in the test with A498, > 100 µM (inactive); with MCF7, 58.6 µM (inactive); with HCT-15 it was 41.7 µM; in the test with MDA-N it was 79.4 µM (inactive); in the test on SF-268 it was > 100 µM (inactive). Also, the GI50 in the test with HOP-62 was > 100 µM (inactive); in the test on PC-3, 39.3 µM (inactive); in the test on HL-60, 18.2 µM (inactive); in the test on OVCAR-3, 45.8 µM (inactive); with NCI-H226 it was > 100 µM (inactive); with MDA-MB-231, > 100 µM (inactive). For the same molecule, the figures for the GI50 with MOLT-4 and with NCI-H522 were 29.2 µM (inactive) and 67.6 µM (inactive), respectively.

Consider `COC1OC(C(=O)CP(=O)(OC)OC)C(OCc2ccccc2)C(OCc2ccccc2)C1OCc1ccccc1` (stereo not given), for which the GI50 with SK-MEL-28 is 16.9 µM (inactive) and 21 µM (inactive); with OVCAR-5 it was 15.4 µM (inactive) and 17.4 µM (inactive); in the test with LOX IMVI it was 17.7 µM (inactive) and 17.2 µM (inactive); with TK-10, 17.1 µM (inactive) and 18.8 µM (inactive); with CCRF-CEM, 33.1 µM (inactive) and 25.1 µM (inactive); in the test on SF-539, 17.3 µM (inactive) and 16.9 µM (inactive). For the same molecule, the GI50 was 15 µM (inactive) and 16.9 µM (inactive) in the test on EKVX; 14.1 µM (inactive) in the test on A498; 16.4 µM (inactive) with MCF7; 15.5 µM and 17.7 µM in the test with HCT-15; 16.3 µM (inactive) and 17.1 µM (inactive) in the test with MDA-N; 16.9 µM (inactive) and 17.7 µM (inactive) with SF-268. Moreover, the GI50 in the test with HOP-62 was 17.2 µM (inactive) and 18 µM (inactive); in the test on PC-3, 15.4 µM (inactive) and 14.2 µM (inactive); with HL-60 it was 21.8 µM (inactive) and 18.7 µM (inactive); in the test on OVCAR-3 it was 15.6 µM (inactive) and 15.1 µM (inactive); in the test on NCI-H226, 19.2 µM (inactive) and 18.8 µM (inactive); in the test on MDA-MB-231 it was 15.9 µM (inactive) and 16.7 µM (inactive). The GI50 is 13 µM (inactive) and 20.8 µM (inactive) with MOLT-4; 14.5 µM (inactive) and 16 µM (inactive) in the test with NCI-H522.

For the molecule `Cc1cs/c(=N\C(P(=O)(O)O)P(=O)(O)O)n1C`, the GI50 in the test with SK-MEL-28, with OVCAR-5, in the test on LOX IMVI, with TK-10, in the test with CCRF-CEM and in the test on SF-539 was > 100 µM (inactive) in each case. For the same molecule, the GI50 in the test on EKVX is > 100 µM (inactive); with A498, > 100 µM (inactive); with MCF7, > 100 µM (inactive); with HCT-15, more than 100 µM; in the test with MDA-N, > 100 µM (inactive); with SF-268 it was > 100 µM (inactive). For the same molecule, the GI50 in the test with HOP-62 was > 100 µM (inactive); in the test on PC-3, > 100 µM (inactive); in the test on HL-60, < 0.01 µM (active); in the test on OVCAR-3 it was > 100 µM (inactive); in the test with NCI-H226, > 100 µM (inactive); in the test on MDA-MB-231, > 100 µM (inactive). For the same molecule, the GI50 in the test with MOLT-4 and in the test with NCI-H522 was > 100 µM (inactive) in each case.
